Test results from PubChem BioAssay AID1259411 (Chemical Carcinogenesis Research Information System (CCRIS), 2018).
Calls of active or inactive are those of the source. The rule behind the calls is not given here.

Test system: rodent carcinogenicity bioassays, tumor incidence
Assay: CCRIS carcinogenicity studies
Outline: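 Archive of carcinogenicity, mutagenicity, tumor promotion and tumor inhibition results drawn from journals, NCI reports and other sources, expert-reviewed; covers 1985-2011 and is no longer updated.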

Q: Which results are given for `O=C(O)c1ccc(N=Nc2ccc(O)c(C(=O)O)c2)cc1`?
A: carcinogen call (Species: MOUSE, Strain/Sex: NMRI/FEMALE, Route: ORAL, Dose: 0, 100, 300, 900 MG/KG BW/D IN DIET FOR 107 WK (HIGH DOSE INCREASED TO 1800 MG/KG BW FROM WK 21) (STUDY DURATION: 107 WK, Dose: 0, 100, 300, 900 MG/KG BW/D IN DIET FOR 107 WK (HIGH DOSE INCREASED TO 1800 MG/KG BW FROM WK 21) (STUDY DURATION: 107 WK): inactive; negative; carcinogen call (Species: MOUSE, Strain/Sex: NMRI/MALE, Route: ORAL, Dose: 0, 100, 300, 900 MG/KG BW/D IN DIET FOR 120 WK (HIGH DOSE INCREASED TO 1800 MG/KG BW FROM WK 21) (STUDY DURATION: 120 WK, Dose: 0, 100, 300, 900 MG/KG BW/D IN DIET FOR 120 WK (HIGH DOSE INCREASED TO 1800 MG/KG BW FROM WK 21) (STUDY DURATION: 120 WK): inactive; negative; carcinogen call (Species: RAT, Strain/Sex: SPRAGUE-DAWLEY/MALE, Route: ORAL, Dose: 0, 300, 900, 2700 MG/KG BW/D IN DIET FOR 118 WK (HIGH DOSE REDUCED TO 1800 MG/KG BW FROM WK 68) (STUDY DURATION: 118 WK), Dose: 0, 300, 900, 2700 MG/KG BW/D IN DIET FOR 118 WK (HIGH DOSE REDUCED TO 1800 MG/KG BW FROM WK 68) (STUDY DURATION: 118 WK)): inactive; negative; carcinogen call (Species: RAT, Strain/Sex: SPRAGUE/DAWLEY/FEMALE, Route: ORAL, Dose: 0, 300, 900, 2700 MG/KG BW/D IN DIET FOR 119 WK (HIGH DOSE REDUCED TO 1800 MG/KG BW FROM WK 68) (STUDY DURATION: 119 WK), Dose: 0, 300, 900, 2700 MG/KG BW/D IN DIET FOR 119 WK (HIGH DOSE REDUCED TO 1800 MG/KG BW FROM WK 68) (STUDY DURATION: 119 WK)): inactive; negative

Q: How did the carcinogen call (Species: DOG, Route: ORAL, Tumor Site: Type of Lesion: MAMMARY GLAND) turn out when `CC(=O)O[C@]1(C(C)=O)CC[C@H]2[C@@H]3C=C(Cl)C4=CC(=O)CC[C@]4(C)[C@H]3CC[C@@]21C` was run?
A: active; positive

Q: What does the source list for `Nc1c(Br)cc(Br)c2c1C(=O)c1ccccc1C2=O`?
A: carcinogen call (Species: MOUSE, Strain/Sex: B6C3F1/FEMALE, Route: ORAL, Dose: 0, 10000, 20000 PPM IN DIET FOR 104 WK (STUDY DURATION: 106 WK), Dose: 0, 10000, 20000 PPM IN DIET FOR 104 WK (STUDY DURATION: 106 WK), Tumor Site: Type of Lesion: LIVER: HEPATOCELLULAR ADENOMA, HEPATOCELLULAR CARCINOMA, FORESTOMACH: SQUAMOUS CELL ADENOMA, SQUAMOUS CELL CARCINOMA, LU, Tumor Site: Type of Lesion: LIVER: HEPATOCELLULAR ADENOMA, HEPATOCELLULAR CARCINOMA, FORESTOMACH: SQUAMOUS CELL ADENOMA, SQUAMOUS CELL CARCINOMA, LU): active; positive; carcinogen call (Species: MOUSE, Strain/Sex: B6C3F1/MALE, Route: ORAL, Dose: 0, 10000, 20000 PPM IN DIET FOR 104 WK (STUDY DURATION: 106 WK), Dose: 0, 10000, 20000 PPM IN DIET FOR 104 WK (STUDY DURATION: 106 WK), Tumor Site: Type of Lesion: LIVER: HEPATOCELLULAR ADENOMA, HEPATOCELLULAR CARCINOMA, HEPATOBLASTOMA, FORESTOMACH: SQUAMOUS CELL PAPILLOMA, SQUAMOUS): active; positive; carcinogen call (Species: RAT, Strain/Sex: F344/FEMALE, Route: ORAL, Dose: 0, 2000, 5000, 10000 PPM IN DIET FOR UP TO 104 WK (STUDY DURATION: 106 WK), Dose: 0, 2000, 5000, 10000 PPM IN DIET FOR UP TO 104 WK (STUDY DURATION: 106 WK), Tumor Site: Type of Lesion: LIVER: HEPATOCELLULAR ADENOMA, HEPATOCELLULAR CARCINOMA, HEPATOCHOLANGIOCARCINOMA, LARGE INTESTINE: ADENOMA, CARCINOMA;, Tumor Site: Type of Lesion: LIVER: HEPATOCELLULAR ADENOMA, HEPATOCELLULAR CARCINOMA, HEPATOCHOLANGIOCARCINOMA, LARGE INTESTINE: ADENOMA, CARCINOMA): active; positive; carcinogen call (Species: RAT, Strain/Sex: F344/MALE, Route: ORAL, Dose: 0, 2000, 5000, 10000 PPM IN DIET FOR UP TO 104 WK (STUDY DURATION: 106 WK), Dose: 0, 2000, 5000, 10000 PPM IN DIET FOR UP TO 104 WK (STUDY DURATION: 106 WK), Tumor Site: Type of Lesion: LIVER: HEPATOCELLULAR ADENOMA, HEPATOCELLULAR CARCINOMA, HEPATOCHOLANGIOCARCINOMA, LARGE INTESTINE: ADENOMA, CARCINOMA;, Tumor Site: Type of Lesion: LIVER: HEPATOCELLULAR ADENOMA, HEPATOCELLULAR CARCINOMA, HEPATOCHOLANGIOCARCINOMA, LARGE INTESTINE: ADENOMA, CARCINOMA): active; positive

Q: `CCOC(=O)C(C)Oc1ccc(Oc2nc3ccc(Cl)cc3o2)cc1` (stereo unspecified) was tested. Which carcinogen call (Species: Mouse, Strain/Sex: Strain not given in source/Female (50/Group), Route: Oral, Dose: 0, 2.5, 10, 40 ppm in diet for 24 mo, study duration 24 mo, Dose: 0, 2.5, 10, 40 ppm in diet for 24 mo, study duration 24 mo) did it give?
A: inactive; negative

Q: What about the carcinogen call (Species: Mouse, Strain/Sex: Strain not given in source/Male (50/Group), Route: Oral, Dose: 0, 2.5, 10, 40 ppm in diet for 24 mo, study duration 24 mo, Dose: 0, 2.5, 10, 40 ppm in diet for 24 mo, study duration 24 mo) of the same molecule?
A: inactive; negative

Q: What about the carcinogen call (Species: Rat, Strain/Sex: Strain not given in source/Female (60/Group), Route: Oral, Dose: 0, 5, 30, 180 ppm (0; 0.33; 2.00; 11.87 mg/kg) in diet for up to 28 mo, study duration 28 mo, Dose: 0, 5, 30, 180 ppm (0; 0.33; 2.00; 11.87 mg/kg) in diet for up to 28 mo, study duration 28 mo) of the same molecule?
A: inactive; negative

Q: What about the carcinogen call (Species: Rat, Strain/Sex: Strain not given in source/Male (60/Group), Route: Oral, Dose: 0, 5, 30, 180 ppm (0; 0.26; 1.58; 9.43 mg/kg) in diet for up to 28 mo, study duration 28 mo, Dose: 0, 5, 30, 180 ppm (0; 0.26; 1.58; 9.43 mg/kg) in diet for up to 28 mo, study duration 28 mo) of the same molecule?
A: inactive; negative

Q: What does the source list for `COc1ccc(O)cc1`?
A: carcinogen call (Species: RAT, Strain/Sex: F344/FEMALE, Route: ORAL, Dose: 0, 2% IN DIET FOR 104 WK (STUDY DURATION: 104 WK), Tumor Site: Type of Lesion: FORESTOMACH: PAPILLOMA, SQUAMOUS CELL CARCINOMA): active; positive; carcinogen call (Species: RAT, Strain/Sex: F344/MALE, Route: ORAL, Dose: 0, 0.4% IN DIET FOR DURATION OF STUDY (STUDY DURATION: 104 WK)): inactive; negative; carcinogen call (Species: RAT, Strain/Sex: F344/MALE, Route: ORAL, Dose: 0, 2% IN DIET FOR 104 WK (STUDY DURATION: 104 WK), Tumor Site: Type of Lesion: FORESTOMACH: PAPILLOMA, SQUAMOUS CELL CARCINOMA): active; positive

Q: For `O=C(CO)[C@@H](O)[C@H](O)[C@H](O)CO`, which carcinogen call (Species: RAT, Strain/Sex: SPRAGUE-DAWLEY/MALE, Route: ORAL, Dose: 0, 120 G/L IN DRINKING WATER AD LIBITUM FOR 30 WK (STUDY DURATION: 501 D)) is on record?
A: inactive; negative

Q: Which carcinogen call (Species: MOUSE, Strain/Sex: B6C3F1/FEMALE, Route: ORAL, Dose: 0, 3, 6 PPM IN DIET FOR 80 WK (STUDY DURATION: 112-113 WK), Dose: 0, 3, 6 PPM IN DIET FOR 80 WK (STUDY DURATION: 112-113 WK)) does the source give for `ClC1=C(Cl)[C@]2(Cl)[C@H]3[C@H]([C@@H]4C=C[C@H]3C4)[C@@]1(Cl)C2(Cl)Cl` here?
A: inactive; negative

Q: What about the carcinogen call (Species: MOUSE, Strain/Sex: B6C3F1/MALE, Route: ORAL, Dose: 0, 4, 8 PPM IN DIET FOR 74 WK (STUDY DURATION: 111-112 WK), Dose: 0, 4, 8 PPM IN DIET FOR 74 WK (STUDY DURATION: 111-112 WK), Tumor Site: Type of Lesion: LIVER: HEPATOCELLULAR CARCINOMA) of the same molecule?
A: active; positive

Q: What about the carcinogen call (Species: RAT, Strain/Sex: OSBORNE-MENDEL/FEMALE, Route: ORAL, Dose: 0, 30, 60 PPM IN DIET FOR 80 WK (STUDY DURATION: 112-113 WK), Dose: 0, 30, 60 PPM IN DIET FOR 80 WK (STUDY DURATION: 112-113 WK), Tumor Site: Type of Lesion: THYROID GLAND: FOLLICULAR CELL ADENOMA OR CARCINOMA, ADRENAL GLAND: CORTICAL ADENOMA) of the same molecule?
A: equivocal

Q: What about the carcinogen call (Species: RAT, Strain/Sex: OSBORNE-MENDEL/MALE, Route: ORAL, Dose: 0, 30, 60 PPM IN DIET FOR 74 WK (STUDY DURATION: 111-112 WK), Dose: 0, 30, 60 PPM IN DIET FOR 74 WK (STUDY DURATION: 111-112 WK), Tumor Site: Type of Lesion: THYROID GLAND: FOLLICULAR CELL ADENOMA OR CARCINOMA) of the same molecule?
A: equivocal
